Results as given in publication PMC5458211, “Mitochondrial VDAC1-based peptides: Attacking oncogenic properties in glioblastoma” (Oncotarget, 2017).
Non-standard residues stand in square brackets, D forms with d. Residues, ends and D or L forms follow the SMILES beside them.

What was measured:
U-251MG cells = experiment: Cell death by PI staining and flow cytometry, U-251MG; assay type: cell-based, human; settings: 6 h at 37°C, serum-free medium, means ± SD (n=3), Fig 1H, read-out: IC50 for inducing cell death
Description: Figure 1 VDAC1-based peptides induce dramatic cell death of several brain tumor-derived cell lines but to lesser extent in primary brain cells A. IHC staining of VDAC1 of human normal brain (n=13) or glioblastoma (n=41) in tissue array slides (Biomax), as described in Materials and methods available online in Supplemental information. Percentages of sections stained at the intensity indicated are shown. […] The VDAC1-derived sequences Δ(1-14)N-terminus and LP4 are in green and pink, respectively. The cell-penetrating peptides Antp and Tf are in orange and blue, respectively. The loop shape of LP4 stabilized by a tryptophan zipper is in purple. The amino acids of Δ(1-14)N-terminus, LP4 and Antp are in the D configuration. The sequences of D-LP4 and Retro-D-LP4 are presented below. C. […] Cells were harvested, washed twice with PBS and cell death was analyzed by propidium iodide (PI) staining and flow cytometry. […] Cells were harvested, washed twice with PBS and cell death was analyzed by PI staining and flow cytometry. […]
Cells (6×10^5 /ml) were incubated in 500 μl serum-free medium with the peptide of interest for 6 h at 37°C in the presence of 5% CO2. The cells were then trypsinized, centrifuged (1500xg, 5 min), washed with PBS and analyzed for cell death using propidium iodide (PI) staining and flow cytometer (Beckton-Dickinson, San Jose, CA) and BD CellQuest Pro software. […]

[1] = system: apoptosis-related proteins; experiment: Expression of apoptosis-related proteins in treated tumors (IHC, immunoblot); assay type: in vivo, human U-87MG in nude mice; settings: treated tumors vs PBS/DMSO
Description: Red color indicates PI nuclear staining and green color TUNEL staining. B. Representative sections from PBS/DMSO- and peptide-TTs IHC stained for p53, Cyto c, AIF, Caspase 3 and Smac/Diablo and then hematoxylin-stained and visualized by microscopy. C. Tissue lysates obtained from controls and several Tf-D-LP4-TTs were immunoblotted for p53, Caspase 8, Cyto c, Smac/Diablo, Caspase 3 and Bcl-2. D. Quantitative analysis of immunoblots is shown (n=2-4).
Formalin-fixed, paraffin-embedded sections of control and peptide-TTs were hematoxylin-eosin stained, probed with appropriate antibodies via IHC staining or immunoblotting of cells and tissue extracts. […]
HBSS solution. Cells or tumor tissue were lysed using lysis buffer (50 mM Tris-HCl, pH 7.5, 150 mM NaCl, 1
Xenograft and intracranial-orthotopic mouse mM EDTA, 1.5 mM MgCl2, 10% glycerol, 1% Triton models X-100, supplemented with a protease inhibitor cocktail
(Calbiochem, UK). Cell lysates were then centrifuged at U-87MG glioblastoma cells (3 x106) were inoculated 600xg (10 min at 4°C) and samples (10-40 μg of protein) s.c. into the hind leg ﬂanks of athymic eight-week old were subjected to SDS-PAGE and immunoblotting male nude mice (Envigo). Thirteen days post-inoculation, using various primary antibodies (sources and dilutions tumor volume was measured and calculated (100-130 as detailed in supplementary Table 2), followed by mm3) and mice were randomized into three groups (5 the appropriate HRP-conjugated secondary antibodies mice/group). Each treatment substance was injected into (i.e., anti-mouse, anti-rabbit or anti-goat). Blots the established s,c. tumors using PBS containing 0.26% were developed using enhanced chemiluminescence DMSO or peptide in PBS, 0.26% DMSO/20 μM). The (Biological Industries). Band intensities were analyzed xenografts were injected 20 µl per tumor (2 points) every by densitometry using Multi Gauge software (Fujifilm) two days. Beginning on the day of inoculation, mouse and the values were normalized to the intensities of the weight and tumor volume were monitored twice a week appropriate β-actin signal that served as a loading control. for a period of 23 days using a digital caliper. At the end of the experiments, the mice were sacrificed, tumors were IHC of tumor tissue sections excised and ex vivo weight was determined. Half of each tumor was either fixed in 4% buffered formaldehyde, IHC staining was performed on 5 μm-thick paraffin-embedded and processed for IHC or frozen in formalin-fixed and paraffin-embedded tumor tissue liquid nitrogen for later immunoblot analysis. sections. The sections were deparaffinized by placing To generate an intracranial-orthotopic mouse model, the slides at 60°C for 1 h and using xylene. […]
(Stoelting, Wood Dale, IL). A middle incision was made c, cytochrome c oxidase subunit IVc, GAPDH, Glut1, on the skull and a burr hole was introduced 0.5 mm HK-II, Klf4, LDH, Nestin, NGFR, P53, SMAC/Diablo, anterior to the bregma and 2.5 mm lateral to the midline Sox2, S100b, VDAC1) was performed in 0.01 M citrate using a drill (Stoelting). A 31-gauge needle loaded with buffer (pH 6.0). For CD31, HK-I and Ki-67, antigen 10 µL PBS was used to deliver tumor cells. The needle retrieval was performed in 10 mM Tris-EDTA (pH 9) and tip was inserted into the brain 3 mm deep, relative to the 0.5 M Tris (pH 10), for 30 minutes each at 95-98°C. After skull surface, and maintained at this depth for 2 minutes washing sections in PBS containing 0.1% Triton-X100 before injection of tumor cells. Under sterile conditions, (pH 7.4), non-specific antibody binding was reduced by a 3 µL solution containing U-87MG (8×104) cells was incubating the sections in 10% normal goat serum for 2 injected into the brain parenchyma over a period of […]. After decanting excess serum, sections were incubated
(1 picture or pasted object on this page, not shown here)

Compound	IC50 (U-251MG cells)	Bcl-2 level [1]	Caspase 3 expression increase [1]	Caspase 8 expression increase [1]	Cyto c expression increase [1]	SMAC/DIABLO expression [1]	p53 expression increase [1]
CC[C@@H](C)[C@@H](NC(=O)[C@@H](CCCCN)NC(=O)[C@H](NC(=O)[C@@H](CCC(N)=O)NC(=O)[C@@H](CCCNC(=N)N)NC(=O)[C@@H](CC(C)C)NC(=O)CNC(=O)[C@@H](Cc1ccccc1)NC(=O)CNC(=O)[C@@H](Cc1ccc(O)cc1)NC(=O)CNC(=O)[C@@H](CCCCN)NC(=O)[C@H](NC(=O)[C@@H](Cc1ccccc1)NC(=O)[C@H](NC(=O)[C@@H](CC(=O)O)NC(=O)[C@H](N)CCCNC(=N)N)C(C)C)[C@H](C)O)[C@H](C)CC)C(=O)N[C@H](Cc1c[nH]c2ccccc12)C(=O)N[C@H](Cc1ccccc1)C(=O)N[C@H](CCC(N)=O)C(=O)N[C@H](CC(N)=O)C(=O)N[C@H](CCCNC(=N)N)C(=O)N[C@H](CCCNC(=N)N)C(=O)N[C@H](CCSC)C(=O)N[C@H](CCCCN)C(=O)N[C@H](Cc1c[nH]c2ccccc12)C(=O)N[C@H](CCCCN)C(=O)N[C@H](CCCCN)C(=O)O [D-ΔN-Ter-Antp] (H-[dR][dD][dV][dF][dT][dK]G[dY]G[dF]G[dL][dR][dQ][dI][dK][dI][dW][dF][dQ][dN][dR][dR][dM][dK][dW][dK][dK]-OH; N-terminus and C-terminus assumed)	4.7 ± 0.9 µM	–	–	–	–	–	–
CC[C@H](C)[C@H](NC(=O)[C@H](C)NC(=O)[C@@H](N)Cc1c[nH]cn1)C(=O)N[C@@H](Cc1ccc(O)cc1)C(=O)N1CCC[C@H]1C(=O)N[C@@H](CCCNC(=N)N)C(=O)N[C@@H](Cc1c[nH]cn1)C(=O)N[C@@H](CO)C(=O)N[C@@H](Cc1c[nH]c2ccccc12)C(=O)N[C@H](C(=O)N[C@@H](Cc1c[nH]c2ccccc12)C(=O)N[C@@H](CCC(=O)O)C(=O)N[C@H](CCCCN)C(=O)N[C@H](CCCCN)C(=O)N[C@H](CC(C)C)C(=O)N[C@H](CCC(=O)O)C(=O)N[C@@H](C(=O)N[C@H](C)C(=O)N[C@@H](C(=O)N[C@H](CC(N)=O)C(=O)N[C@H](CC(C)C)C(=O)N[C@H](C)C(=O)N[C@H](Cc1c[nH]c2ccccc12)C(=O)N[C@@H](C(=O)N[C@H](C)C(=O)NCC(=O)N[C@H](CC(N)=O)C(=O)N[C@H](CO)C(=O)N[C@H](CC(N)=O)C(=O)N[C@@H](CCCCN)C(=O)N[C@@H](Cc1c[nH]c2ccccc12)C(=O)N[C@H](C(=O)N[C@@H](Cc1c[nH]c2ccccc12)C(=O)N[C@@H](CCCCN)C(=O)O)[C@@H](C)O)[C@H](C)O)C(C)C)[C@H](C)O)[C@@H](C)O [Tf-D-LP4]	–	almost undetectable	> 5 fold	about 20 fold	over 10 fold	much higher	over 12 fold
